The values that follow come from patent publication US9725465B2, “Biaryl acetamide compounds and methods of use thereof” (Ambit Biosciences Corporation, priority 2013, dated 2017).

The target of one assay is FLT3-ITD (Homo sapiens (Human), UniProt P36888, INS600HVDFREYEYD). The experiment in a line: pFLT3 MSD assay, Ba/F3 FLT3-ITD. The assay is classed as cell-based. The conditions noted are these: Ba/F3 FLT3-ITD cells, 2 hours, read-out: BaF3-FLT3-ITD pFlt3 IC50.
Another assay concerns the target FLT3 kinase (Homo sapiens (Human), UniProt P36888). The experiment in a line: Competition binding assay (Kd), FLT3. To be noted: competition binding.
In another assay the target is KIT kinase (Homo sapiens (Human), UniProt P10721). The experiment in a line: Competition binding assay (Kd), KIT. To be noted: competition binding. The procedure, abridged:
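Kinase, as T7 phage fusion or HEK-293-expressed DNA-tagged protein, competed off immobilised ligand beads by test compound (eleven-point threefold dilutions, from 100× DMSO stocks). Eluted kinase quantified by qPCR to derive Kd; DMSO used as control.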

FLT3-ITD, sequence (P36888 other isoform, or with tags, fused parts or gaps limits assumed, stated change not applied): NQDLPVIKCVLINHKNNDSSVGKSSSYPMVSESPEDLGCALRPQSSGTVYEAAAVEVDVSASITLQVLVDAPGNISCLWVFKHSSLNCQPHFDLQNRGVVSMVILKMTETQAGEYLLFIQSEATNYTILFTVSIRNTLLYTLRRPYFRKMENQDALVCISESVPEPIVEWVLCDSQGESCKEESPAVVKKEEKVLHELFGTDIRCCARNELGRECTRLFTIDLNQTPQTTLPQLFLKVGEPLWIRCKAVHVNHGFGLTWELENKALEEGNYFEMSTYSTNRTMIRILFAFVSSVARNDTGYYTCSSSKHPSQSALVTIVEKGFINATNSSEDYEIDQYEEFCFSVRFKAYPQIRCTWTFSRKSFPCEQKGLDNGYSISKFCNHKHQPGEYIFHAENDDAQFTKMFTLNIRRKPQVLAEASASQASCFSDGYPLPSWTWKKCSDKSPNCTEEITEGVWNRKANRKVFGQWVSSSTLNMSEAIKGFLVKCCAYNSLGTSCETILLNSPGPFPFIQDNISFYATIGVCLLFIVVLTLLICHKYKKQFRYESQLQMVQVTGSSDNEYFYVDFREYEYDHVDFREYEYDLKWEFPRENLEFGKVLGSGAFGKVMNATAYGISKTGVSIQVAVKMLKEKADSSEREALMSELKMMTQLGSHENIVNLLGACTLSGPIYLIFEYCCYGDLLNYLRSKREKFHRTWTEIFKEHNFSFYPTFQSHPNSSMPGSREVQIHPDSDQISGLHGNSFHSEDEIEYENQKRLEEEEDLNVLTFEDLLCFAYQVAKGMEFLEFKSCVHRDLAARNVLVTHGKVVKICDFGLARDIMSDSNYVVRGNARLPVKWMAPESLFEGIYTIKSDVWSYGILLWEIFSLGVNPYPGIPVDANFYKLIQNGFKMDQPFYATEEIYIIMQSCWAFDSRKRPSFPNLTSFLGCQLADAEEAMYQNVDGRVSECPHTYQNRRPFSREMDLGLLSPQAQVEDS
FLT3 kinase, sequence (P36888 27-993): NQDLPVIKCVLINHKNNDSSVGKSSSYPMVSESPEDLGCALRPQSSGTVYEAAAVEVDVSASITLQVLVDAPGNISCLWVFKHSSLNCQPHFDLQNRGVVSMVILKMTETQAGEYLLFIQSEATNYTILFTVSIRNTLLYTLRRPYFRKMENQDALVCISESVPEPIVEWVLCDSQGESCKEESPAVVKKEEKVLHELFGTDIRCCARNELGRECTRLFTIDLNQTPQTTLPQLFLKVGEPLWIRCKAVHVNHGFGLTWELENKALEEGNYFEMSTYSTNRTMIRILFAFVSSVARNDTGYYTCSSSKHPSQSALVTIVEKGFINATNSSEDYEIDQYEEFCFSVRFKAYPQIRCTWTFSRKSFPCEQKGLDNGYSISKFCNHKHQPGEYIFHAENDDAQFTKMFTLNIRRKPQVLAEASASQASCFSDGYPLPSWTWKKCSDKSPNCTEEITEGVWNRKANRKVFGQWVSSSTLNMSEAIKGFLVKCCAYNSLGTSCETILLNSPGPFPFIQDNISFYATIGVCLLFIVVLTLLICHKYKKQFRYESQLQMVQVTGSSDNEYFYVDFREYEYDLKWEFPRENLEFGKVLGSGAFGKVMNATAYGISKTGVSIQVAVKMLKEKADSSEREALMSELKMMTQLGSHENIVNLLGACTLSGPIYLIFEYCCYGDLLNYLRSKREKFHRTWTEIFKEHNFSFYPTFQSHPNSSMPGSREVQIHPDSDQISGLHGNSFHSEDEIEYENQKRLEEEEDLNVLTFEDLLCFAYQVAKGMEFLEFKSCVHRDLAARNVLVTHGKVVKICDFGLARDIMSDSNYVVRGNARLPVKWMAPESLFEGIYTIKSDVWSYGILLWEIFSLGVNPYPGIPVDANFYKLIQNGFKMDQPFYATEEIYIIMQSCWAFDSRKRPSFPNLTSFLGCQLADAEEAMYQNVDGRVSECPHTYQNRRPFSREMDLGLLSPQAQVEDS
KIT kinase, sequence (P10721 26-976): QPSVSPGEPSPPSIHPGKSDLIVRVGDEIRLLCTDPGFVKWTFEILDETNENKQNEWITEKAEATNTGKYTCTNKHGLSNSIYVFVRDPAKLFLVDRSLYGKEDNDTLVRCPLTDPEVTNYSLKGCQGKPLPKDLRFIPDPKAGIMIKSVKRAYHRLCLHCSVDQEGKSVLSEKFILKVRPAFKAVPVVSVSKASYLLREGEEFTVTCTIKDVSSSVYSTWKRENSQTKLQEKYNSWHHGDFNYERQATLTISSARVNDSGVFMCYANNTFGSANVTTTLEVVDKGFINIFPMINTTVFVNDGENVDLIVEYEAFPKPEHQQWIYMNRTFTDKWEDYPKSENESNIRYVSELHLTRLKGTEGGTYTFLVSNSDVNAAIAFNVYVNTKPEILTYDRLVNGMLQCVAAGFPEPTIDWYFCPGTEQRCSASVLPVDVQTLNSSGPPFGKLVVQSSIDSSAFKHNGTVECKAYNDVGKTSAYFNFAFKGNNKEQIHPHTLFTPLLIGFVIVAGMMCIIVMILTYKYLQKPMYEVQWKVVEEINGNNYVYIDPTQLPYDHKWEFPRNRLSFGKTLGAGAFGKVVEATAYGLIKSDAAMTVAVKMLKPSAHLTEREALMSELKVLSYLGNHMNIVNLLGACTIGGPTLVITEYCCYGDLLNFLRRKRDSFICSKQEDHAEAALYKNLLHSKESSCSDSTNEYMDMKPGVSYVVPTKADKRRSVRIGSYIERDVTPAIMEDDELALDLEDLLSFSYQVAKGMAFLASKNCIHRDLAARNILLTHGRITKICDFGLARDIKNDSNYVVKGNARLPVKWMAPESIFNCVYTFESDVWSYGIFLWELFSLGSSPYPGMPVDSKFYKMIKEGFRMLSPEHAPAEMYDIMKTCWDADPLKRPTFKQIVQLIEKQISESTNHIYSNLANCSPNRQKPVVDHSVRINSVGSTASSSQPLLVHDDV

For the molecule `COc1cc2ncc(-c3ccc(CC(=O)Nc4cc(C5(C(F)(F)F)CC5)on4)cc3)nc2cc1OC` [Example 1, 2-(4-(6,7-dimethoxyquinoxalin-2-yl)phenyl)-N-(5-(1-(trifluoromethyl)cyclopropyl)isoxazol-3-yl)acetamide], the IC50 – broadly, the concentration at which inhibition is half-maximal – at FLT3-ITD was less than 10 nM.
Consider `CC(C)(C)c1cc(NC(=O)Cc2ccc(-c3cnc4[nH]ccc4c3)cc2)no1` [Example 25, 2-(4-(1H-pyrrolo[2,3-b]pyridin-5-yl)phenyl)-N-(5-(tert-butyl)isoxazol-3-yl)acetamide], for which, on FLT3-ITD, the IC50 is less than 10 nM.
Consider `CC(C)(c1cc(NC(=O)Cc2ccc(-c3cnc4[nH]ccc4c3)cc2)no1)C(F)(F)F` [Example 26, 2-(4-(1H-pyrrolo[2,3-b]pyridin-5-yl)phenyl)-N-(5-(1,1,1-trifluoro-2-methylpropan-2-yl)isoxazol-3-yl)acetamide], for which the IC50 on FLT3-ITD is less than 10 nM.
For `CC(C)(C)c1cc(NC(=O)Cc2ccc(-c3cnc4[nH]ccc4c3)cc2F)no1` [Example 27, N-(5-(tert-butyl)isoxazol-3-yl)-2-(2-fluoro-4-(1H-pyrrolo[2,3-b]pyridin-5-yl)phenyl)acetamide], the IC50 on FLT3-ITD was less than 10 nM.
Regarding `O=C(Cc1ccc(-c2cnc3[nH]ccc3c2)cc1F)Nc1cc(C2(C(F)(F)F)CC2)on1` [Example 28, 2-(2-fluoro-4-(1H-pyrrolo[2,3-b]pyridin-5-yl)phenyl)-N-(5-(1-(trifluoromethyl)cyclopropyl)isoxazol-3-yl)acetamide], the half-maximal inhibitory concentration (IC50) on FLT3-ITD is less than 10 nM.
Regarding `CC(C)(c1cc(NC(=O)Cc2ccc(-c3cnc4[nH]ccc4c3)cc2F)no1)C(F)(F)F` [Example 29, 2-(2-fluoro-4-(1H-pyrrolo[2,3-b]pyridin-5-yl)phenyl)-N-(5-(1,1,1-trifluoro-2-methylpropan-2-yl)isoxazol-3-yl)acetamide], at FLT3-ITD, the IC50 is less than 10 nM.
Still for that read-out and setting: for `O=C(Cc1ccc(-c2cnc3[nH]ccc3n2)cc1F)Nc1cc(C2(C(F)(F)F)CC2)on1` [Example 30, 2-(2-fluoro-4-(5H-pyrrolo[2,3-b]pyrazin-2-yl)phenyl)-N-(5-(1-(trifluoromethyl)cyclopropyl)isoxazol-3-yl)acetamide] the value was less than 10 nM; for `CC(C)(C)c1cc(NC(=O)Cc2ccc(-c3cnc4[nH]ncc4c3)cc2)no1` [Example 31, 2-(4-(1H-pyrazolo[3,4-b]pyridin-5-yl)phenyl)-N-(5-(tert-butyl)isoxazol-3-yl)acetamide], less than 10 nM; for `CC(C)(C)c1cc(NC(=O)Cc2ccc(-c3cnc4[nH]ncc4c3)cc2F)no1` [Example 32, N-(5-(tert-butyl)isoxazol-3-yl)-2-(2-fluoro-4-(1H-pyrazolo[3,4-b]pyridin-5-yl)phenyl)acetamide], less than 10 nM.
For the molecule `O=C(Cc1ccc(-c2cnc3[nH]ncc3c2)cc1F)Nc1cc(C2(C(F)(F)F)CC2)on1` [Example 33, 2-(2-fluoro-4-(1H-pyrazolo[3,4-b]pyridin-5-yl)phenyl)-N-(5-(1-(trifluoromethyl)cyclopropyl)isoxazol-3-yl)acetamide], on FLT3-ITD, the IC50 is less than 10 nM.
As to `CC(C)(c1cc(NC(=O)Cc2ccc(-c3cnc4[nH]ncc4c3)cc2F)no1)C(F)(F)F` [Example 34, 2-(2-fluoro-4-(1H-pyrazolo[3,4-b]pyridin-5-yl)phenyl)-N-(5-(1,1,1-trifluoro-2-methylpropan-2-yl)isoxazol-3-yl)acetamide], the IC50 at FLT3-ITD is less than 10 nM.
With `COc1n[nH]c2ncc(-c3ccc(CC(=O)Nc4cc(C(C)(C)C(F)(F)F)on4)cc3)cc12` [Example 35, 2-(4-(3-methoxy-1H-pyrazolo[3,4-b]pyridin-5-yl)phenyl)-N-(5-(1,1,1-trifluoro-2-methylpropan-2-yl)isoxazol-3-yl)acetamide], on FLT3-ITD, the IC50 is less than 10 nM.
On to `COc1cc(OC)c2cc(-c3ccc(CC(=O)Nc4cc(C5(C(F)(F)F)CC5)on4)c(F)c3)cnc2c1` [Example 36, 2-(4-(5,7-dimethoxyquinolin-3-yl)-2-fluorophenyl)-N-(5-(1-(trifluoromethyl)cyclopropyl)isoxazol-3-yl)acetamide], for which the IC50 on FLT3-ITD was less than 10 nM.
With `CC(C)(C)c1cc(NC(=O)Cc2ccc(-c3cnc4[nH]nc(C#N)c4c3)cc2)no1` [Example 37, N-(5-(tert-butyl)isoxazol-3-yl)-2-(4-(3-cyano-1H-pyrazolo[3,4-b]pyridin-5-yl)phenyl)acetamide], at FLT3-ITD, the IC50 is less than 10 nM.
Same read-out and setting: for `CC(C)(C)c1cc(NC(=O)Cc2ccc(-c3cnc4[nH]nc(Cl)c4c3)cc2)no1` [Example 38, N-(5-(tert-butyl)isoxazol-3-yl)-2-(4-(3-chloro-1H-pyrazolo[3,4-b]pyridin-5-yl)phenyl)acetamide] the value was less than 10 nM.
Same read-out and setting: for `CCOc1n[nH]c2ncc(-c3ccc(CC(=O)Nc4cc(C(C)(C)C(F)(F)F)on4)cc3)cc12` [Example 39, 2-(4-(3-ethoxy-1H-pyrazolo[3,4-b]pyridin-5-yl)phenyl)-N-(5-(1,1,1-trifluoro-2-methylpropan-2-yl)isoxazol-3-yl)acetamide] the value was less than 10 nM; for `Cc1n[nH]c2ncc(-c3ccc(CC(=O)Nc4cc(C(C)(C)C)on4)cc3)cc12` [Example 40, N-(5-(tert-butyl)isoxazol-3-yl)-2-(4-(3-methyl-1H-pyrazolo[3,4-b]pyridin-5-yl)phenyl)acetamide], less than 10 nM.
The same measure, in the same setting: for `CC(C)(c1cc(NC(=O)Cc2ccc(-c3cnc4[nH]nnc4c3)cc2)no1)C(F)(F)F` [Example 41, 2-(4-(3H-[1,2,3]triazolo[4,5-b]pyridin-6-yl)phenyl)-N-(5-(1,1,1-trifluoro-2-methylpropan-2-yl)isoxazol-3-yl)acetamide] the value was less than 10 nM.
In the case of `COc1cc2ncc(-c3ccc(CC(=O)Nc4cc(C5(C(F)(F)F)CC5)on4)cc3F)nc2cc1OC` [Example 42, 2-(4-(6,7-dimethoxyquinoxalin-2-yl)-3-fluorophenyl)-N-(5-(1-(trifluoromethyl)cyclopropyl)isoxazol-3-yl)acetamide], on FLT3-ITD, the IC50 was less than 10 nM.
Take `COc1cc2ncc(-c3ccc(CC(=O)Nc4cc(C(C)(C)C)on4)c(F)c3)nc2cc1OC` [Example 43, N-(5-(tert-butyl)isoxazol-3-yl)-2-(4-(6,7-dimethoxyquinoxalin-2-yl)-2-fluorophenyl)acetamide]: the half-maximal inhibitory concentration (IC50) at FLT3-ITD was less than 10 nM.
Regarding `CC(C)(c1cc(NC(=O)Cc2ccc(-c3cnc4[nH]ncc4c3)cc2)no1)C(F)(F)F` [Example 44, 2-(4-(1H-pyrazolo[3,4-b]pyridin-5-yl)phenyl)-N-(5-(1,1,1-trifluoro-2-methylpropan-2-yl)isoxazol-3-yl)acetamide], the IC50 at FLT3-ITD was less than 10 nM.
Turning to `COc1cc2nc(-c3ccc(CC(=O)Nc4cc(C5(C(F)(F)F)CC5)on4)c(F)c3)cnc2cc1OCCN1CCO[C@@H](C)C1` [Example 248, 2-[2-fluoro-4-[7-methoxy-6-[2-[(2S)-2-methylmorpholin-4-yl]ethoxy]quinoxalin-2-yl]phenyl]-N-[5-[1-(trifluoromethyl)cyclo-propyl]isoxazol-3-yl]acetamide], the Kd on FLT3 kinase and at KIT kinase was less than 5 nM in each case.
As to `COc1cc2nc(-c3ccc(CC(=O)Nc4cc(C5(C(F)(F)F)CC5)on4)c(F)c3)cnc2cc1OCC(C)(C)O` [Example 249, 2-[2-fluoro-4-[6-(2-hydroxy-2-methyl-propoxy)-7-methoxy-quinoxalin-2-yl]phenyl]-N-[5-[1-(trifluoro-methyl)cyclopropyl]isoxazol-3-yl]acetamide], the Kd on FLT3 kinase and on KIT kinase was less than 5 nM each time.
